Data published in patent US9844550B2, “Phtalazinone derivatives and manufacturing process thereof” (ILDONG PHARM CO., LTD., priority 2013, dated 2017).

What was measured:
[1] = system: MDA-MB-436 breast cancer cell line; test: Cell viability assay (MDA-MB-436); assay type: cell-based; conditions: Homo sapiens, 144 h; MDA-MB-436 cells, treated 6 days
Outline: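 MDA-MB-436 breast cancer cells in DMEM/F12 with 10% FBS, treated 24 h after seeding with graded compound concentrations for 6 days at 37 °C, 5% CO2, medium changed every 3 days. Viability read with a fluorescence reagent; IC50 derived.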

Mouse pharmacokinetics = assay type: in vivo; set-up: concentration or dose not given beside the values; conditions: Balb/c male mice, blood samples 15 to 1140 min, LC-MS/MS
Method: To evaluate the pharmacokinetics test, the invented compounds (from I-25 to I-1171) were determined as follows. Blood samples are collected at 15, 30, 60, 120, 240, 480, 1140 min. Quantification is by using a LC-MS/MS method specific to the selected compound. Pharmacokinetics parameters are calculated using WinNonLinnon compartmental analysis software.

[2] = system: LNCaP prostate cancer cell line; test: Cell viability assay (LNCaP); assay type: cell-based; conditions: Homo sapiens, 264 h; LNCaP cells, treated 11 days
Method: 4. Cell Viability Assay (LNCaP)
(§1) Cell viability assay was performed by using LNCaP cell line to measure cytotoxicity of compounds in the present invention. LNCaP prostate cancer cell line was seeded into 96-well plates at 37° C. under 5% CO2 atmosphere using RPMI-1640 (Hyclone) containing 10% FBS (Hyclone). After 24 hr incubation, cells were treated with the invented compounds at various concentrations for 11 days. The medium was changed every 3 to 4 day. 11 days later, A fluorescence reagent was used to determine the IC50 values.

[3] = system: Capan-1 pancreatic cancer cell line; test: Cell viability assay (Capan-1); assay type: cell-based; conditions: Homo sapiens, 240 h; Capan-1 cells, treated 10 days
Method: 3. Cell Viability Assay (Capan-1)
as §1, with “Capan-1” for “LNCaP”, “Capan-1 pancreatic” for “LNCaP prostate”, “IMDM (Sigma)” for “RPMI-1640 (Hyclone)”, “10” for “11”, “After 7-day incubation, the” for “The”, “changed. 10” for “changed every 3 to 4 day. 11”

Tankyrase-1 = molecular target: T1, Tankyrase-1 (Homo sapiens, UniProt O95271); test: Tankyrase-1 enzyme assay; assay type: biochemical; conditions: 1 hr at room temperature, chemiluminescent readout
T1 sequence (O95271 1-1327): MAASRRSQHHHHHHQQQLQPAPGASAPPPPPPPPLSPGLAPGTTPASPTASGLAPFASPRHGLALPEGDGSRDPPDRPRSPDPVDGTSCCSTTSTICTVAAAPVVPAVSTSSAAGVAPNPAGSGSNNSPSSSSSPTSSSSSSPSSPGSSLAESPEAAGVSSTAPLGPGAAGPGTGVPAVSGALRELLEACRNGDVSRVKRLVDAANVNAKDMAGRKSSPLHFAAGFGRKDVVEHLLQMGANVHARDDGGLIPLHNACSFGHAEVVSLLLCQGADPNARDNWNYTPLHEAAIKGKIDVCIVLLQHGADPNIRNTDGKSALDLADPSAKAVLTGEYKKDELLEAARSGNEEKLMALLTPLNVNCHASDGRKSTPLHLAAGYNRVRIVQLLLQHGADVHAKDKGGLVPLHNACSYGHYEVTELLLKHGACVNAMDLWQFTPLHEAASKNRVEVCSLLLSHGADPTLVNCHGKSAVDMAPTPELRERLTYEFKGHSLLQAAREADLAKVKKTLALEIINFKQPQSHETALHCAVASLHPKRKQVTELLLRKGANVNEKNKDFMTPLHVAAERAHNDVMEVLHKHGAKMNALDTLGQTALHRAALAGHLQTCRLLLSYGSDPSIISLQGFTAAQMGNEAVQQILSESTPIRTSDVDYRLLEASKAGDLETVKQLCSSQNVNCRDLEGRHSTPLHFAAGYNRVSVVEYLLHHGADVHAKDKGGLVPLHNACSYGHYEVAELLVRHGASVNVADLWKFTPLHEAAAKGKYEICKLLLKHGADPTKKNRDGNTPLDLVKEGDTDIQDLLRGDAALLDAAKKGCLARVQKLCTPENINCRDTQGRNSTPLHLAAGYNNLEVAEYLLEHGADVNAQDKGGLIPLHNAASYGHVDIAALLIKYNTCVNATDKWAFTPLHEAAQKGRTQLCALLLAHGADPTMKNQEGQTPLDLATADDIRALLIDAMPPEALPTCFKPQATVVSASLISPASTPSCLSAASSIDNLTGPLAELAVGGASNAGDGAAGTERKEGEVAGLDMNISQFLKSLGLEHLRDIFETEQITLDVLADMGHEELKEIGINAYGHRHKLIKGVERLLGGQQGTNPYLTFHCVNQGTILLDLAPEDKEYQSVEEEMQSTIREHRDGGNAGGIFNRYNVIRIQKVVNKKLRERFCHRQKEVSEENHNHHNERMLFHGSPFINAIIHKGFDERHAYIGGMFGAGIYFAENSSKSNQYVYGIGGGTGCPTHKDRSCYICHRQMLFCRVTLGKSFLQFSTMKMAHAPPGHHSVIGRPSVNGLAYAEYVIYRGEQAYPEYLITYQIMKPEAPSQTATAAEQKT
Method: 5. Tankyrase-1 Enzyme Assay
Tankyrase-1 enzyme assay was performed to determine Tankyrase-1 inhibitory activity of compounds in the present invention. The enzymatic reaction was conducted by coating the plate with substrates of tankyrase-1, and then the plate was washed. Compounds in the present invention serially diluted in DMSO were added to the reaction buffer activating tankyrase-1, and incubated for 1 hr at room temperature. After stopping the reaction, the plate was washed, and streptavidin-HRP was added to each well. IC50 was calculated by adding chemiluminescent substrate and immediately reading the sample in a microplate reader (Biotek).

[4] = system: Capan-1 Human pancreatic cancer cells; test: In vivo antitumoral efficacy, Capan-1 subcutaneous xenograft; conditions: Capan-1 xenograft in Balb/c nude mice
Method: To evaluate the in vivo antitumoral efficacy, the invented compounds (I-80˜171) was determined as a result to follows.
Capan-1 Human pancreatic cancer cells were established as subcutaneous xenografts by injection of 8×10^6 cells into the flanks of adult female Balb/c nude mice. Mice with established tumors (160-250 mm^3) were selected for study (n=6/treatment group). The test compounds were formulated in DW and administered orally (po) at a dose of 30˜200 mg/kg. The vehicle alone was administered to control groups. Animals were dosed 5 days per week (Monday through Friday) for 3 consecutive weeks.
Animals were weighed and tumor size was determined twice weekly by caliper measurements, and tumor volumes were calculated (volume=[…] (mm^3), where l and w refer to the larger and smaller dimensions collected at each measurement). The mean tumor volumes of each group were calculated. The change in mean treated tumor volume was divided by the change in mean control tumor volume, multiplied by 100 and subtracted from 100% to give the tumor growth inhibition for each group.

[5] = 100 mg/kg po qd x 5, 3 consecutive weeks
[6] = 200 mg/kg po qd x 5, 3 consecutive weeks

Row | SMILES | IC50 [1] | AUC (Mouse pharmacokinetics) | IC50 [2] | IC50 [3] | IC50 (Tankyrase-1) | % TGI [4, 5] | % TGI [4, 6]
1 | O=C(c1cc(Cc2n[nH]c(=O)c3ccccc23)ccc1F)N1CC(NC2CCCC2)C1 [Compound I-27, 4-(3-(3-(cyclopentylamino)azetidine-1-carbonyl)-4-fluorobenzyl)phthalazin-1(2H)-one] | ≤ 5 nM | 472 ng·h/mL | 50 to 300 nM | 50 to 300 nM | > 1000 nM |  | 
2 | CC(C)NC1CN(C(=O)c2cc(Cc3n[nH]c(=O)c4ccccc34)ccc2F)C1 [Compound I-32, 4-(4-fluoro-3-(3-(isopropylamino)azetidine-1-carbonyl)benzyl)phthalazin-1(2H)-one] | ≤ 5 nM |  | 50 to 300 nM | 50 to 300 nM | > 1000 nM |  | 
3 | CC(C)CNC1CN(C(=O)c2cc(Cc3n[nH]c(=O)c4ccccc34)ccc2F)C1 [Compound I-35, 4-(4-fluoro-3-(3-(isobutylamino)azetidine-1-carbonyl)benzyl)phthalazin-1(2H)-one] | ≤ 5 nM | 2250 ng·h/mL | > 1000 nM | 300 to 1000 nM |  |  | 
4 | CCCCNC1CN(C(=O)c2cc(Cc3n[nH]c(=O)c4ccccc34)ccc2F)C1 [Compound I-53, 4-(3-(3-(butylamino)azetidine-1-carbonyl)-4-fluorobenzyl)phthalazin-1(2H)-one] | ≤ 5 nM | 1250 ng·h/mL | > 1000 nM | 300 to 1000 nM |  |  | 
5 | O=C(c1cc(Cc2n[nH]c(=O)c3ccccc23)ccc1F)N1CC(NC2(C(F)(F)F)CC2)C1 [Compound I-80, 4-(4-fluoro-3-(3-((1-(trifluoromethyl)cyclopropyl)amino)azetidine-1-carbonyl)benzyl)phthalazin-1(2H)-one] | ≤ 5 nM | 2020 ng·h/mL | 50 to 300 nM | 50 to 300 nM |  | 75.9% | 103.9%
6 | COC[C@@H](C)NC1CN(C(=O)c2cc(Cc3n[nH]c(=O)c4ccccc34)ccc2F)C1 [Compound I-83, (R)-4-(4-fluoro-3-(3-((1-methoxypropan-2-yl)amino)azetidine-1-carbonyl)benzyl)phthalazin-1(2H)-one] | 5 to 50 nM | 567 ng·h/mL | > 1000 nM | 300 to 1000 nM |  |  | 
7 | O=C(c1cc(Cc2n[nH]c(=O)c3ccccc23)ccc1F)N1CC(Nc2ccc(Cl)nn2)C1 [Compound I-114, 4-(3-(3-((6-chloropyridazin-3-yl)amino)azetidine-1-carbonyl)-4-fluorobenzyl)phthalazin-1(2H)-one] | 300 to 1000 nM |  | 5 to 50 nM |  | > 1000 nM |  | 
8 | O=C(c1cc(Cc2n[nH]c(=O)c3ccccc23)ccc1F)N1CC[C@@H](Nc2ncc(Br)cn2)C1 [Compound I-130, (R)-4-(3-(3-((5-bromopyrimidin-2-yl)amino)pyrrolidine-1-carbonyl)-4-fluorobenzyl)phthalazin-1(2H)-one] | ≤ 5 nM |  |  |  | 50 to 300 nM |  | 
9 | O=C(c1cc(Cc2n[nH]c(=O)c3ccccc23)ccc1F)N1CC[C@@H](Nc2ccc(C(F)(F)F)cn2)C1 [Compound I-131, (R)-4-(4-fluoro-3-(3-((5-(trifluoromethyl)pyridin-2-yl)amino)pyrrolidine-1-carbonyl)benzyl)phthalazin-1(2H)-one] | 50 to 300 nM |  | 5 to 50 nM |  |  |  | 
10 | O=C(c1cc(Cc2n[nH]c(=O)c3ccccc23)ccc1F)N1CC(CNC2CC2)C1 [Compound I-143, 4-(3-(3-((cyclopropylamino)methyl)azetidine-1-carbonyl)-4-fluorobenzyl)phthalazin-1(2H)-one] | ≤ 5 nM | 673 ng·h/mL |  | 50 to 300 nM |  |  | 
11 | CC(C)CNCC1CN(C(=O)c2cc(Cc3n[nH]c(=O)c4ccccc34)ccc2F)C1 [Compound I-146, 4-(4-fluoro-3-(3-((isobutylamino)methyl)azetidine-1-carbonyl)benzyl)phthalazin-1(2H)-one] | 5 to 50 nM | 1090 ng·h/mL | > 1000 nM | 300 to 1000 nM |  |  | 
12 | CC(C)(C)NCC1CN(C(=O)c2cc(Cc3n[nH]c(=O)c4ccccc34)ccc2F)C1 [Compound I-147, 4-(3-(3-((tert-butylamino)methyl)azetidine-1-carbonyl)-4-fluorobenzyl)phthalazin-1(2H)-one] | 300 to 1000 nM |  |  |  | > 1000 nM |  | 
13 | C#CCNCC1CN(C(=O)c2cc(Cc3n[nH]c(=O)c4ccccc34)ccc2F)C1 [Compound I-149, 4-(4-fluoro-3-(3-((prop-2-yn-1-ylamino)methyl)azetidine-1-carbonyl)benzyl)phthalazin-1(2H)-one] | ≤ 5 nM | 169 ng·h/mL | > 1000 nM | 300 to 1000 nM |  |  | 
14 | O=C(c1cc(Cc2n[nH]c(=O)c3ccccc23)ccc1F)N1CC(CNc2ccccc2)C1 [Compound I-150, 4-(4-fluoro-3-(3-((phenylamino)methyl)azetidine-1-carbonyl)benzyl)phthalazin-1(2H)-one] | 50 to 300 nM |  |  |  | > 1000 nM |  | 
15 | Cl.O=C(c1cc(Cc2n[nH]c(=O)c3ccccc23)ccc1F)N1CC(NC2CCCC2)C1 [Compound I-158, 4-(3-(3-(cyclopentylamino)azetidine-1-carbonyl)-4-fluorobenzyl)phthalazin-1(2H)-one hydrochloride] |  |  |  |  |  | 44.9% | 80.9%
16 | Cl.O=C(c1cc(Cc2n[nH]c(=O)c3ccccc23)ccc1F)N1CC(NCC2CC2)C1 [Compound I-160, 4-(3-(3-((cyclopropylmethyl)amino)azetidine-1-carbonyl)-4-fluorobenzyl)phthalazin-1(2H)-one hydrochloride] |  | 2250 ng·h/mL |  |  |  | 55.8% | 88.2%
